Measured values from patent US7402696B2, “Benzene compounds” (Ajinomoto Co., Inc., priority 2004, dated 2008).
Like-named read-outs stand apart in the source and are kept apart here.

Molecular target: T1, ACC (acetyl CoA carboxylase) purified from liver of male SD rat (Rattus norvegicus, UniProt P11497)
T1 construct: applied to a monomeric avidin sepharose column, and washed with buffer B. The ACC was eluted with buffer B containing 2 mM d-biotin; from tissue; host or cells: liver of male SD rat
Assay: Measurement of ACC inhibition activity ([14C]-NaHCO3 incorporation)
Assay type: biochemical
Settings: ACC inhibition activity rate at 1 μM, read-out: ACC Inhibition (%)
Procedure: A male SD rat was deprived of food for two days and then fed a high-sucrose diet (component) for two days. While anesthetized with ether, the descending vena cava was cut upon, the animal was bled, and the liver was rapidly recovered. In an ice-cooled buffer solution A (225 mM mannitol, 75 mM sucrose, 10 mM Tris-HCl (pH 7.5), 0.05 mM EDTA, 5 mM potassium citrate, 2.5 mM MgCl2, 10 mg/L pepstatin A, 10 mg/L leupeptin, 1 mM PMSF), the liver was homogenized with a polytone homogenizer. A quantity of buffer A nine times the weight of the liver was added, the mixture was centrifuged for 10 minutes at 1,000 g, the supernatant was recovered, and the supernatant was centrifuged for another 10 minutes at 17,000 g.
Ammonium sulfate was added to 35 percent saturation to the obtained supernatant. The mixture was stirred for 45 minutes and then centrifuged for 10 minutes at 17,000 g. Buffer solution B (100 mM Tris-HCl (pH 7.5), 500 mM NaCl, 1 mM EDTA, 0.1 mM DTT, 10 percent glycerol, 10 mg/L pepstatin A, 10 mg/L leupeptin, 0.5 mM PMSF) was added to the obtained precipitate and dissolved. The solution was then centrifuged for 20 minutes at 40,000 g. The supernatant was dialyzed overnight against buffer C (100 mM Tris-HCl (pH 7.5), 500 mM NaCl, 1 mM EDTA, 0.1 mM DTT, 5 percent glycerol).
The dialyzed supernatant was passed through a […], applied to a monomeric avidin sepharose column, and washed with buffer B. The ACC was eluted with buffer B containing 2 mM d-biotin.
(2 Measurement of ACC Inhibition Activity)
The compounds synthesized in the above-described embodiments were dissolved in DMSO and charged to glass vials. 250 μL of ACC-containing reaction solution (40 mM Tris-HCl (pH 7.5), 40 mM MgCl2, 40 mM sodium citrate, and 2 mM DTT) was added. The mixture was heated for 30 minutes at 37° C. in a thermostatic chamber and then cooled with ice. To reaction solution 1 was added 250 μL of reaction solution 2 containing [14C]—NaHCO3 (40 mM Tris-HCl (pH 7.5), 2 mM DTT, 8 mM ATP, 0.5 mM acetyl CoA) and the mixture was heated for 10 minutes at 37° C. 100 μL of 1N HCl was added to stop the reaction. Water in the reaction solution was removed with a centrifugal evaporator, a scintillator was added, the solid component was dissolved, and the 14C radioactivity was measured with a liquid scintillation counter. The ACC inhibition activity of each compound was calculated from the following equation and converted to the ACC inhibition activity rate (%) at 1 μM.
ACC inhibition rate (%)=(1−(a−c)/(b−c))×100 a. Radioactivity when test drug added b: Radioactivity when test drug not added c: Blank* *Reaction solution 1 to which 100 μL of 1N HCl was added before mixing reaction solution 1 and reaction solution 2

[1] = Table 4-IV, Mode 4 benzenediamine compounds (numbers = x-IV)
[2] = Table 2-III, Mode 3 acetylene/oxadiazole/thiazole compounds (numbers = x-III)
[3] = Table 3-I, Mode 1 quinoline compounds (numbers = x-I)

Structure (SMILES)	inhibition at 1 µM [1] [%]	further results
CC(C)CCN(C)c1ccc(-c2noc(-c3cccc(C(=O)NS(=O)(=O)c4ccccc4)c3)n2)cc1NC1C=CCCC1 (stereo not shown) [compound 59]	100	–
CC(C)CCN(C)c1ccc(-c2noc(-c3cccc(C(=O)NS(=O)(=O)c4ccccc4)c3)n2)cc1NCc1nccn1C [compound 60]	61	–
CN(C)CCNc1ccc(C(=O)Nc2cccc(C(=O)NS(=O)(=O)c3ccccc3)c2)cc1[N+](=O)[O-] [compound 62]	53	–
O=C(O)CNC(=O)Nc1ccc(C#Cc2cccc(C(F)(F)F)c2)cc1 [compound 65]	–	inhibition at 1 µM [2]: 64%
O=C(Nc1ccc(C#Cc2cccc(C(F)(F)F)c2)cc1)NC(Cc1ccccc1)C(=O)O (stereo not shown) [compound 66]	–	inhibition at 1 µM [2]: 73%
O=C(Nc1cccc(C(=O)NS(=O)(=O)c2ccccc2)c1)c1ccc(NCCN2CCCC2)c([N+](=O)[O-])c1 [compound 67]	58	–
O=C1c2cccc3cccc(c23)C(=O)N1c1cccc(C#Cc2cccc(C(F)(F)F)c2)c1 [compound 70]	–	inhibition at 1 µM [2]: 62%
O=C1C(c2ccccc2)=C(c2ccccc2)C(=O)N1c1cccc(C#Cc2cccc(C(F)(F)F)c2)c1 [compound 74]	–	inhibition at 1 µM [2]: 66%
O=[N+]([O-])c1ccccc1S(=O)(=O)Nc1ccc(-c2csc(-c3ccccc3)n2)cc1 [compound 77]	–	inhibition at 1 µM [2]: 64%
O=S(=O)(Nc1ccc(-c2csc(-c3ccccc3)n2)cc1)c1ccccc1NO [compound 78]	–	inhibition at 1 µM [2]: 55%
Cc1ccccc1S(=O)(=O)NC(=O)CC(NC(=O)c1ccc(N(C)CCC(C)C)c(NCc2ccccc2)c1)C1CCCCC1 (stereo not shown) [compound 82]	56	–
O=C(O)c1ccc(-c2ccc3nc(-c4cc(C(F)(F)F)cc(C(F)(F)F)c4)ccc3c2)o1 [compound 82]	–	inhibition at 1 µM [3]: 34%
O=[N+]([O-])c1ccccc1S(=O)(=O)Nc1cccc(-c2csc(-c3ccccc3)n2)c1 [compound 82]	–	inhibition at 1 µM [2]: 63%
CC(C)(C)c1ccc(C(=O)NS(=O)(=O)c2ccccc2NC(=O)c2ccc3nc(-c4cc(C(F)(F)F)cc(C(F)(F)F)c4)ccc3c2)cc1 [compound 83]	–	inhibition at 1 µM [3]: 98%
Cc1ccccc1S(=O)(=O)NC(=O)CC(NC(=O)c1ccc(N(C)CCC(C)C)c(NCC2CCCCC2)c1)C1CCCCC1 (stereo not shown) [compound 83]	92	–
CC(C)CCN(C)c1ccc(C(=O)NC(CC(=O)NS(=O)(=O)c2ccccc2)C2CCCCC2)cc1NC(C)C (stereo not shown) [compound 84]	52	–
CC(C)CCN(C)c1ccc(C(=O)NC(CC(=O)NS(=O)(=O)c2ccccc2)C2CCCCC2)cc1NC1CCC1 (stereo not shown) [compound 85]	59	–
CC(C)CCN(C)c1ccc(C(=O)NC(CC(=O)NS(=O)(=O)c2ccccc2)C2CCCCC2)cc1NCc1ccco1 (stereo not shown) [compound 90]	62	–
CC(C)CCN(C)c1ccc(C(=O)NC(CC(=O)NS(=O)(=O)c2ccccc2)C2CCCCC2)cc1NCc1cccs1 (stereo not shown) [compound 91]	70	–
Nc1cccc(S(=O)(=O)Nc2ccc(-c3csc(-c4ccccc4)n3)cc2)c1 [compound 91]	–	inhibition at 1 µM [2]: 65%
CC(C)CCN(C)c1ccc(C(=O)NC(CC(=O)NS(=O)(=O)c2ccccc2)C2CCCCC2)cc1NCc1nccs1 (stereo not shown) [compound 92]	49	–

Structure (SMILES)	inhibition at 1 µM [1] [%]	further results
CC(C)CCN(C)c1ccc(C(=O)NC(CC(=O)NS(=O)(=O)c2ccccc2)C2CCCCC2)cc1N(C)Cc1ccccc1 (stereo not shown) [compound 93]	84	–
CC(C)CCN(C)c1ccc(C(=O)NC(CC(=O)NS(=O)(=O)c2ccccc2)C2CCCCC2)cc1N(C)CC1CCCCC1 (stereo not shown) [compound 94]	96	–
CCCCS(=O)(=O)NC(=O)CC(NC(=O)c1ccc2nc(-c3cc(C(F)(F)F)cc(C(F)(F)F)c3)ccc2c1)c1cccc2ccccc12 (stereo not shown) [compound 94]	–	inhibition at 1 µM [3]: 50%
CC(C)CCN(C)c1ccc(-c2noc(-c3cccc(C(=O)NS(=O)(=O)c4ccccc4)c3)n2)cc1NCc1ccc(O)cc1 [compound 95]	100	–
O=C(O)c1ccccc1C(=O)Nc1ccc(-c2csc(-c3cc(C(F)(F)F)ccc3F)n2)cc1 [compound 99]	–	inhibition at 1 µM [2]: 52%
CC(C)CCN(C)c1ccc(-c2noc(-c3cccc(C(=O)NS(=O)(=O)c4ccccc4)c3)n2)cc1NCc1cccc(F)c1 [compound 101]	100	–
CC(C)CCN(C)c1ccc(-c2noc(-c3cccc(C(=O)NS(=O)(=O)c4ccccc4)c3)n2)cc1NCc1ccc2ccccc2c1 [compound 102]	100	–
CCCCS(=O)(=O)NC(=O)CC(NC(=O)c1ccc2nc(-c3cc(C(F)(F)F)cc(C(F)(F)F)c3)ccc2c1)c1cccc(N)c1 (stereo not shown) [compound 102]	–	inhibition at 1 µM [3]: 45%
CCCCCC(=O)NS(=O)(=O)c1ccccc1NC(=O)c1ccc2nc(-c3cc(C(F)(F)F)cc(C(F)(F)F)c3)c(CCCl)cc2c1 [compound 103]	–	inhibition at 1 µM [3]: 50%
O=C(Nc1ccc(-c2csc(-c3ccccc3)n2)cc1)N[C@H](Cc1ccccc1)C(=O)O [compound 103]	–	inhibition at 1 µM [2]: 63%
O=C(O)CCC(NC(=O)OCc1ccccc1)C(=O)Nc1ccc(-c2csc(-c3ccccc3)n2)cc1 (stereo not shown) [compound 104]	–	inhibition at 1 µM [2]: 66%
CC(C)c1ccc(S(=O)(=O)NC(=O)c2ccc(-c3csc(-c4ccc(C#Cc5cccc(C(F)(F)F)c5)cc4)n3)cc2)cc1 [compound 105]	–	inhibition at 1 µM [2]: 99%
CC(C)c1ccc(S(=O)(=O)NC(=O)c2cccc(-c3nc(-c4ccc(-c5csc(-c6ccc(C(F)(F)F)cc6)n5)cc4)no3)c2)cc1 [compound 106]	–	inhibition at 1 µM [2]: 97%
CC(C)c1ccc(S(=O)(=O)NC(=O)c2ccc(-c3nc(-c4ccc(-c5csc(-c6ccc(C(F)(F)F)cc6)n5)cc4)no3)cc2)cc1 [compound 107]	–	inhibition at 1 µM [2]: 100%
CCCCCC(=O)NS(=O)(=O)c1ccccc1NC(=O)c1ccc2nc(-c3cc(C(F)(F)F)ccc3F)ccc2c1 [compound 107]	–	inhibition at 1 µM [3]: 90%
Cc1ccccc1S(=O)(=O)NC(=O)c1cccc(-c2nc(-c3ccc(N(C)CCC(C)C)c(NC(C)c4ccccc4)c3)no2)c1 (stereo not shown) [compound 107]	100	–
CCCCCC(=O)NS(=O)(=O)c1ccccc1NC(=O)c1ccc2nc(-c3cccc(SC(F)(F)F)c3)ccc2c1 [compound 109]	–	inhibition at 1 µM [3]: 61%
CCCCCC(=O)NS(=O)(=O)c1ccccc1NC(=O)c1ccc2nc(-c3cccc(C(F)(F)F)c3F)ccc2c1 [compound 110]	–	inhibition at 1 µM [3]: 50%
CC(C)CCN(C)c1ccc(-c2noc(-c3cccc(C(=O)NS(=O)(=O)c4ccccc4)c3)n2)cc1NCc1ccc(OCCO)cc1 [compound 113]	97	–
CC(C)CCN(C)c1ccc(-c2noc(-c3cccc(C(=O)NS(=O)(=O)c4ccccc4)c3)n2)cc1NCc1cc(O)cc(O)c1 [compound 114]	77	–
CC(C)c1ccc(S(=O)(=O)NC(=O)c2ccccc2-c2csc(-c3ccc4nc(-c5cc(C(F)(F)F)cc(C(F)(F)F)c5)ccc4c3)n2)cc1 [compound 115]	–	inhibition at 1 µM [3]: 97%

Now from value to compound, other results behind:

inhibition at 1 µM [1] [%]	Structure (SMILES)	further results
95	CC(C)CCN(C)c1ccc(-c2noc(-c3cccc(C(=O)NS(=O)(=O)c4ccccc4)c3)n2)cc1NCc1cccc(O)c1 [compound 96]	–
98	CC(C)CCN(C)c1ccc(-c2noc(-c3cccc(C(=O)NS(=O)(=O)c4ccccc4)c3)n2)cc1NCc1ccccc1O [compound 97]	–
100	COc1cccc(CNc2cc(-c3noc(-c4cccc(C(=O)NS(=O)(=O)c5ccccc5)c4)n3)ccc2N(C)CCC(C)C)c1 [compound 98]	–
72	CC(C)CCN(C)c1ccc(-c2noc(-c3cccc(C(=O)NS(=O)(=O)c4ccccc4)c3)n2)cc1NCc1cccc(C(=O)O)c1 [compound 100]	–
100	Cc1ccccc1S(=O)(=O)NC(=O)c1cccc(-c2nc(-c3ccc(N(C)CCC(C)C)c(NCc4ccccc4)c3)no2)c1 [compound 103]	–
100	CC(C)CCN(C)c1ccc(-c2noc(-c3cccc(C(=O)NS(=O)(=O)c4ccccc4)c3)n2)cc1NC(C)c1ccccc1 (stereo not shown) [compound 106]	–
75	CC(C)CCN(C)c1ccc(C(=O)NC(CC(=O)NS(=O)(=O)c2ccccc2)c2ccccc2)cc1NCc1ccccc1 (stereo not shown) [compound 112]	–
